The target in this test is T1, human PAH with the R408W mutation (Homo sapiens, UniProt P00439, R408W).
T1 construct: expressed in transfected cells
T1 sequence (P00439 1-452 R408W): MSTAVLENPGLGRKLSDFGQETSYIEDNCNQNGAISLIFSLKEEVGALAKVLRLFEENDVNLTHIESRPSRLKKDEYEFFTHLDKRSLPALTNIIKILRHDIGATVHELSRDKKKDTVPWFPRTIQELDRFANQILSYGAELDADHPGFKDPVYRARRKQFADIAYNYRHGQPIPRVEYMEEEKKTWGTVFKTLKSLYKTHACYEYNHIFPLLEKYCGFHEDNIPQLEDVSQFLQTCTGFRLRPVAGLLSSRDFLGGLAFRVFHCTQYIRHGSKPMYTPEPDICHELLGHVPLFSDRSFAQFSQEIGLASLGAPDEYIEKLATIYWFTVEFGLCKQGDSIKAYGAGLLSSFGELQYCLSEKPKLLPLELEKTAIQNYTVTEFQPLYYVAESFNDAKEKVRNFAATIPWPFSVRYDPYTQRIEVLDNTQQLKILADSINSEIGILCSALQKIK
Nature of the test: Cell Based Phenylalanine Flux Assay. As to conditions: A375 cells expressing human R408W PAH, 13C-Tyrosine by LC-MS, average where tested multiple times, read-out: AC50.

Like-named read-outs stand apart in the source and are kept apart here.

For the compound `O=C(CCC1CCCC1)N1CCc2[nH]cnc2[C@H]1c1nc2ccccc2s1` [Example 1015], the AC50 (in general, the midpoint of the concentration-response curve, whichever way the signal moves) (24 hrs compound incubation) lay in the range of 0.5 to 1 µM.
For the compound `O=C(c1ccon1)N1CCc2[nH]cnc2[C@@H]1c1nc2ccc(Br)cc2[nH]1` [Example 982, (R)-(4-(6-bromo-1H-benzo[d]imidazol-2-yl)-6,7-dihydro-1H-imidazo[4,5-c]pyridin-5(4H)-yl)(isoxazol-3-yl)methanone], the AC50 (24 hrs compound incubation) fell in the range of 1 to 5 µM.
For the compound `O=C(c1nncs1)N1CCc2[nH]cnc2[C@@H]1c1nc2ccc(Br)cc2[nH]1` [Example 978, (R)-(4-(6-bromo-1H-benzo[d]imidazol-2-yl)-6,7-dihydro-1H-imidazo[4,5-c]pyridin-5(4H)-yl)(1,3,4-thiadiazol-2-yl)methanone], where the note is “24 hrs compound incubation”, the AC50 was more than 5 µM.
For the compound `Cn1nccc1C(=O)N1CCc2[nH]cnc2[C@@H]1c1nc2ccccc2s1` [Example 1840, (R)-(4-(benzo[d]thiazol-2-yl)-6,7-dihydro-1H-imidazo[4,5-c]pyridin-5(4H)-yl)(1-methyl-1H-pyrazol-5-yl)methanone], the half-maximal activity concentration (AC50) (24 hrs compound incubation) is more than 5 µM.
For `O=C(c1cnn2ccc(Cl)cc12)N1CCc2[nH]cnc2[C@H]1c1nc2cccc(F)c2s1` [Example 1301], the concentration at half-maximal activity (AC50) (24 hrs compound incubation) is less than 0.5 µM.
On to `O=C(c1oc(CCC2CC2)nc1C(F)(F)F)N1CCCc2[nH]cnc2[C@H]1c1nc2ccccc2s1` [Example 2135, (S)-(4-(benzo[d]thiazol-2-yl)-7,8-dihydroimidazo[4,5-c]azepin-5(1H,4H,6H)-yl)(2-(2-cyclopropylethyl)-4-(trifluoromethyl)oxazol-5-yl)methanone], for which the AC50 (24 hrs compound incubation) is less than 0.5 µM.
In the case of `CC(C)(O)c1nnc(C(=O)N2CCc3[nH]cnc3[C@H]2c2nc3ccccc3s2)o1` [Example 1508], the concentration at half-maximal activity (AC50) (24 hrs compound incubation) is 1 to 5 µM.
The same measure, in the same setting: to `CC(C)n1ncc(C(=O)N2CCc3[nH]cnc3[C@@H]2c2nc3c(F)cccc3s2)c1C(F)F` [Example 2002, (R)-(5-(difluoromethyl)-1-isopropyl-1H-pyrazol-4-yl)(4-(4-fluorobenzo[d]thiazol-2-yl)-6,7-dihydro-1H-imidazo[4,5-c]pyridin-5(4H)-yl)methanone] belongs 1 to 5 µM.
Turning to `O=C(c1nccs1)N1CCc2[nH]cnc2C1c1nc2ccc(F)cc2[nH]1` (centres unmarked), the AC50 (24 hrs with compound) was more than 5 µM.
`O=C(c1cc(C(F)(F)F)n[nH]1)N1CCc2[nH]cnc2[C@@H]1c1nc2c(F)cccc2s1` [Example 1815, (R)-(4-(4-fluorobenzo[d]thiazol-2-yl)-6,7-dihydro-1H-imidazo[4,5-c]pyridin-5(4H)-yl)(3-(trifluoromethyl)-1H-pyrazol-5-yl)methanone]: the concentration at half-maximal activity (AC50) (24 hrs compound incubation) fell in the range of 1 to 5 µM.
`Cc1nc(-c2ccccn2)c(C(=O)N2CCc3[nH]cnc3C2c2nc3ccccc3s2)o1` (centres unmarked): the AC50 (24 hrs with compound) was 1 to 5 µM.
Take `O=C(c1cnc(-c2c(F)cccc2F)s1)N1CCc2[nH]cnc2[C@H]1c1nc2c(F)cccc2s1` [Example 1504]: the AC50 (24 hrs compound incubation) is less than 0.5 µM.
For the compound `Cn1nc(CC#N)nc1C(=O)N1CCc2[nH]cnc2C1c1nc2c(F)cccc2s1` (centres unmarked), the concentration at half-maximal activity (AC50) (24 hrs with compound) is 1 to 5 µM.
For `Cc1noc(C(=O)N2CCc3[nH]cnc3[C@@H]2c2nc3ccccc3s2)n1` (single isomer, unassigned), for the setting “24 hrs with compound”, the half-maximal activity concentration (AC50) was more than 5 µM.
For the compound `O=C(c1cnn2c(Br)cccc12)N1CCc2[nH]cnc2[C@H]1c1nc2c(F)cccc2s1` [Example 1239], for the setting “24 hrs compound incubation”, the AC50 is less than 0.5 µM.
`O=C(CC1CCC1)N1CCc2[nH]cnc2[C@H]1c1nc2ccccc2s1` [Example 1307]: the AC50 (24 hrs compound incubation) is less than 0.5 µM.
Same read-out and setting: next, `Cc1nnc(C(=O)N2CCc3[nH]cnc3[C@H]2c2nc3c(F)cccc3s2)s1` [Example 1252, (S)-(4-(4-fluorobenzo[d]thiazol-2-yl)-6,7-dihydro-1H-imidazo[4,5-c]pyridin-5(4H)-yl)(5-methyl-1,3,4-thiadiazol-2-yl)methanone]: 1 to 5 µM.
Same read-out and setting: next, `O=C(c1cnc(-c2cnn(CC(F)(F)F)c2)s1)N1CCc2[nH]cnc2[C@@H]1c1nc2ccccc2s1` [Example 1362, (R)-(4-(benzo[d]thiazol-2-yl)-6,7-dihydro-1H-imidazo[4,5-c]pyridin-5(4H)-yl)(2-(1-(2,2,2-trifluoroethyl)-1H-pyrazol-4-yl)thiazol-5-yl)methanone]: 1 to 5 µM.
As to `Cc1ccc2c(C(=O)N3CCc4[nH]cnc4C3c3nc4ccc(Cl)cc4[nH]3)cnn2c1` (centres unmarked), the AC50 (24 hrs with compound) was more than 5 µM.
On to `N#Cc1nc(NCC(F)(F)F)oc1C(=O)N1CCc2[nH]cnc2C1c1nc2ccccc2s1` (centres unmarked), for which the AC50 (24 hrs with compound) was in the range of 1 to 5 µM.
As for `O=C(c1nncs1)N1CCc2[nH]cnc2[C@H]1c1nc2ccc(Cl)cc2[nH]1` [Example 958, (S)-(4-(6-chloro-1H-benzo[d]imidazol-2-yl)-6,7-dihydro-1H-imidazo[4,5-c]pyridin-5(4H)-yl)(1,3,4-thiadiazol-2-yl)methanone], the AC50 (24 hrs compound incubation) lay within 0.5 to 1 µM.
On the same count and under the same terms, next, `O=C(c1nc(Cl)cs1)N1CCc2[nH]cnc2[C@H]1c1nc2ccc(F)cc2s1` [Example 1142]: 0.5 to 1 µM; `Cn1nc(Cl)cc1C(=O)N1CCc2[nH]cnc2[C@@H]1c1nc2c(F)cccc2s1` [Example 1722, (R)-(3-chloro-1-methyl-1H-pyrazol-5-yl)(4-(4-fluorobenzo[d]thiazol-2-yl)-6,7-dihydro-1H-imidazo[4,5-c]pyridin-5(4H)-yl)methanone]: 1 to 5 µM.
For `CC(C)n1ncc(C(=O)N2CCc3[nH]cnc3[C@@H]2c2nc3c(F)cccc3s2)c1Cl` [Example 1952, (R)-(5-chloro-1-isopropyl-1H-pyrazol-4-yl)(4-(4-fluorobenzo[d]thiazol-2-yl)-6,7-dihydro-1H-imidazo[4,5-c]pyridin-5(4H)-yl)methanone], the half-maximal activity concentration (AC50) (24 hrs compound incubation) was in the range of 1 to 5 µM.
For `CC(C)(C)c1ncoc1C(=O)N1CCc2[nH]cnc2[C@H]1c1nc2c(F)cccc2s1` [Example 2181], under “24 hrs compound incubation”, the AC50 is less than 0.5 µM.
Same read-out and setting: to `Cn1nccc1C(=O)N1CCc2[nH]cnc2[C@H]1c1nc2c(C(F)(F)F)cccc2s1` [Example 2111, (S)-(1-methyl-1H-pyrazol-5-yl)(4-(4-(trifluoromethyl)benzo[d]thiazol-2-yl)-6,7-dihydro-1H-imidazo[4,5-c]pyridin-5(4H)-yl)methanone] belongs 0.5 to 1 µM; to `Cn1cc(-c2nnc(C(=O)N3CCc4[nH]cnc4[C@@H]3c3nc4c(F)cccc4s3)o2)c(C(F)(F)F)n1` [Example 1928, (R)-(4-(4-fluorobenzo[d]thiazol-2-yl)-6,7-dihydro-1H-imidazo[4,5-c]pyridin-5(4H)-yl)(5-(1-methyl-3-(trifluoromethyl)-1H-pyrazol-4-yl)-1,3,4-oxadiazol-2-yl)methanone], 1 to 5 µM.
For the compound `O=C(c1nnc(-c2ccc(F)c(F)c2)o1)N1CCc2[nH]cnc2[C@@H]1c1nc2c(F)cccc2s1` [Example 1877, (R)-(5-(3,4-difluorophenyl)-1,3,4-oxadiazol-2-yl)(4-(4-fluorobenzo[d]thiazol-2-yl)-6,7-dihydro-1H-imidazo[4,5-c]pyridin-5(4H)-yl)methanone], the AC50 (24 hrs compound incubation) lay in the range of 1 to 5 µM.
Regarding `CNCc1ccc2c(C(=O)N3CCc4[nH]cnc4C3c3nc4ccccc4s3)cnn2c1` (centres unmarked), the concentration at half-maximal activity (AC50) (24 hrs with compound) was 1 to 5 µM.
On the same count and under the same terms, to `O=C(c1cnn2cccc(F)c12)N1CCc2[nH]cnc2C1c1nc2ccccc2s1` (centres unmarked) belongs more than 5 µM; to `COCc1nnc(C(=O)N2CCc3[nH]cnc3C2c2nc3ccccc3s2)o1` (centres unmarked), 1 to 5 µM.
In the case of `CCn1cnnc1C(=O)N1CCc2[nH]cnc2[C@@H]1c1nc2c(F)cccc2s1` [Example 2043, (R)-(4-ethyl-4H-1,2,4-triazol-3-yl)(4-(4-fluorobenzo[d]thiazol-2-yl)-6,7-dihydro-1H-imidazo[4,5-c]pyridin-5(4H)-yl)methanone], the AC50 (24 hrs compound incubation) is 1 to 5 µM.
The same measure, in the same setting: to `CC(C)(O)c1nnc(C(=O)N2CCc3[nH]cnc3[C@@H]2c2nc3ccccc3s2)o1` [Example 1507, (R)-(4-(benzo[d]thiazol-2-yl)-6,7-dihydro-1H-imidazo[4,5-c]pyridin-5(4H)-yl)(5-(2-hydroxypropan-2-yl)-1,3,4-oxadiazol-2-yl)methanone] belongs 1 to 5 µM.
Same read-out and setting: to `O=C(c1cnn2ccc(Br)cc12)N1CCc2[nH]cnc2[C@H]1c1nc2cccc(F)c2s1` [Example 1283] belongs less than 0.5 µM; to `Cc1ncoc1C(=O)N1CCc2[nH]cnc2[C@@H]1c1nc2ccccc2[nH]1` [Example 992, (R)-(4-(1H-benzo[d]imidazol-2-yl)-6,7-dihydro-1H-imidazo[4,5-c]pyridin-5(4H)-yl)(4-methyloxazol-5-yl)methanone], more than 5 µM.
The same measure, in the same setting: next, `CC(C)(O)c1nc(CF)c(C(=O)N2CCc3[nH]cnc3[C@@H]2c2nc3c(F)cccc3s2)o1` [Example 2066, (R)-(4-(4-fluorobenzo[d]thiazol-2-yl)-6,7-dihydro-1H-imidazo[4,5-c]pyridin-5(4H)-yl)(4-(fluoromethyl)-2-(2-hydroxypropan-2-yl)oxazol-5-yl)methanone]: 1 to 5 µM; `O=C(c1cnc(C(F)(F)F)s1)N1CCc2[nH]cnc2[C@@H]1c1nc2ccccc2s1` [Example 1182, (R)-(4-(benzo[d]thiazol-2-yl)-6,7-dihydro-1H-imidazo[4,5-c]pyridin-5(4H)-yl)(2-(trifluoromethyl)thiazol-5-yl)methanone]: 1 to 5 µM.
Regarding `Cn1ncnc1C(=O)N1CCc2[nH]cnc2[C@@H]1c1nc2ccccc2s1` [Example 1814, (R)-(4-(benzo[d]thiazol-2-yl)-6,7-dihydro-1H-imidazo[4,5-c]pyridin-5(4H)-yl)(1-methyl-1H-1,2,4-triazol-5-yl)methanone], under “24 hrs compound incubation”, the AC50 is more than 5 µM.
